Some targets named below: HLA-A*0201 (HLA-A2.1) (Homo sapiens, UniProt P04439, D140Y/D185E/D98H/E176V/E277Q/G131W/G231S/I119V/I121R/I166T/I218V/L300P/L318F/N151K/N90K/P208A/P217A/Q86G/Q94H/R138H/R169H/T345S); A*0202 (Homo sapiens, UniProt P04439, D140Y/D185E/D98H/E176V/E277Q/G131W/G231S/I119L/I121R/I166T/I218V/L180W/L300P/L318F/N151K/N90K/P208A/P217A/Q67R/Q86G/Q94H/R138H/R169H/T345S); A*0203 (Homo sapiens, UniProt P04439, A173T/D140Y/D185E/D98H/E277Q/G131W/G231S/I119V/I121R/I166T/I218V/L180W/L300P/L318F/N151K/N90K/P208A/P217A/Q86G/Q94H/R138H/R169H/T345S); A*0206 (Homo sapiens, UniProt P04439, D140Y/D185E/D98H/E176V/E277Q/F33Y/G131W/G231S/I119V/I121R/I166T/I218V/L300P/L318F/N151K/N90K/P208A/P217A/Q86G/Q94H/R138H/R169H/T345S); A*6802 (Homo sapiens, UniProt P04439, A269V/D140Y/D185E/E176V/E277Q/E87N/F33Y/G231S/I121R/I166T/I218V/L180W/L300P/L318F/N151K/P208A/P217A/Q86R/R138H/R169H/S129P/T345S/V36M).

Holding throughout (test): biochemical
What all share (type): binding

38 sequences from patent US9340577B2, “HLA binding motifs and peptides and their uses” (priority 1992, dated 2016) can be followed below.

pIC50: −log10 of the molar value. No end group written: not given here. Where only a bound is given, the exact number is not on record here.

The term pIC50 denotes −log10 of the IC50, conventionally taken in molar units. Read a low pIC50 as a large IC50. Take QLHTQVLFIA [Peptide 9013.0242]: the negative-log IC50 (pIC50) against HLA-A*0201 (HLA-A2.1) is 5.40; against A*0202 it was 6.49; at A*0203, 6.79; at A*0206, less than 4.70; at A*6802, less than 4.70.

In the case of QLSNGNRTL [Peptide 9013.0050], the pIC50 at HLA-A*0201 (HLA-A2.1) is 4.79; against A*0202 it was 7.41; at A*0203, 7.37; on A*0206 it was less than 4.70; against A*6802, 5.06.

With QLSNGNRTLTL [Peptide 9013.0292], the pIC50 at HLA-A*0201 (HLA-A2.1) is less than 4.70; on A*0202 it was 7.10; at A*0203 it was 6.17; on A*0206, less than 4.70; against A*6802 it was less than 4.70.

With QLSNGNRTLV [Peptide 9013.0229], the pIC50 against HLA-A*0201 (HLA-A2.1) is less than 4.70; against A*0202, 7.18; against A*0203, 6.84; against A*0206 it was less than 4.70; against A*6802, less than 4.70.

For QLSTQELFI [Peptide 9013.0057], the pIC50 on HLA-A*0201 (HLA-A2.1) is 7.19; on A*0202 it was 8.35; against A*0203 it was 7.57; against A*0206 it was 5.13; at A*6802 it was 5.09.

Turning to QQIEFITFL [Peptide 1578.10], the pIC50 against HLA-A*0201 (HLA-A2.1) is 7.38; at A*0202 it was 8.23; at A*0203, 7.70; on A*0206 it was 7.35; against A*6802, 7.03.

In the case of QQIEFVSFL [Peptide 1578.16], the negative logarithm of the IC50 (pIC50) is 7.72 against HLA-A*0201 (HLA-A2.1); 8.48 against A*0202; 7.85 at A*0203; 7.31 on A*0206; 7.36 against A*6802.

Turning to QQSTQELFV [Peptide 9013.0056], the pIC50 against HLA-A*0201 (HLA-A2.1) is 5.80; against A*0202 it was 6.79; against A*0203, 6.39; against A*0206 it was 6.23; at A*6802 it was less than 4.70.

RILQHLLFA [Peptide 1525.24]: the pIC50 against HLA-A*0201 (HLA-A2.1) was 6.80; against A*0202 it was 6.66; against A*0203, 7.29; against A*0206, 7.96; on A*6802, less than 4.70.

Turning to RILQQLLFA [Peptide 1525.14], the pIC50 against HLA-A*0201 (HLA-A2.1) was 6.91; against A*0202, 7.17; on A*0203, 7.17; against A*0206, 7.70; at A*6802 it was less than 4.70.

On to RILQQLLFV [Peptide 1525.09], for which the pIC50 was 7.55 against HLA-A*0201 (HLA-A2.1); 6.31 against A*0202; 7.22 on A*0203; 7.74 against A*0206; 4.75 against A*6802.

Take RILQQLLLI [Peptide 1525.20]: the pIC50 is 6.70 at HLA-A*0201 (HLA-A2.1); 5.33 against A*0202; 6.00 on A*0203; 7.09 against A*0206; less than 4.70 against A*6802.

As for RILQQMLFI [Peptide 1525.22], the pIC50 against HLA-A*0201 (HLA-A2.1) was 6.73; at A*0202, 6.15; on A*0203 it was 6.62; at A*0206 it was 6.97; on A*6802, less than 4.70.

With RILQRLLFV [Peptide 1525.27], the pIC50 at HLA-A*0201 (HLA-A2.1) was 7.19; on A*0202, 5.80; against A*0203, 7.96; against A*0206, 7.14; against A*6802, less than 4.70.

With RLENAILFTA [Peptide 1578.51], the pIC50 was 5.67 against HLA-A*0201 (HLA-A2.1); 7.37 against A*0202; 5.75 on A*0203; 5.34 against A*0206; less than 4.70 against A*6802.

Turning to RLLQQLLFI [Peptide 1525.10], the pIC50 at HLA-A*0201 (HLA-A2.1) is 7.57; at A*0202 it was 7.15; against A*0203, 7.34; against A*0206, 7.72; at A*6802 it was less than 4.70.

RLLTLLSVT [Peptide 9013.0076]: the pIC50 is 5.74 on HLA-A*0201 (HLA-A2.1); 5.34 at A*0202; 5.80 on A*0203; 6.32 against A*0206; less than 4.70 against A*6802.

In the case of RLQLSNGNRTL [Peptide 9013.0286], the pIC50 at HLA-A*0201 (HLA-A2.1) is less than 4.70; against A*0202, 6.35; against A*0203, 5.55; against A*0206, less than 4.70; against A*6802 it was less than 4.70.

Take RLQLSNGNRTV [Peptide 9013.0328]: the pIC50 is 5.23 against HLA-A*0201 (HLA-A2.1); 6.89 on A*0202; 7.24 at A*0203; less than 4.70 on A*0206; 5.31 at A*6802.

With RLTVTTITV [Peptide 9013.0067], the negative logarithm of the IC50 (pIC50) was 6.97 on HLA-A*0201 (HLA-A2.1); 7.66 at A*0202; 7.44 against A*0203; 6.15 on A*0206; 4.89 at A*6802.

For the sequence RLTVTTITVYA [Peptide 9013.0305], the pIC50 against HLA-A*0201 (HLA-A2.1) was 6.61; against A*0202, 7.64; on A*0203, 6.69; on A*0206, 5.96; against A*6802, 7.28.

Turning to RMLQHLLFI [Peptide 1545.04], the pIC50 is 7.80 against HLA-A*0201 (HLA-A2.1); 8.00 against A*0202; 8.40 against A*0203; 7.85 at A*0206; less than 4.70 against A*6802.

On to RMLQQLLFI [Peptide 1525.12], for which the negative-log IC50 (pIC50) at HLA-A*0201 (HLA-A2.1) was 7.82; on A*0202 it was 6.89; against A*0203, 7.92; against A*0206 it was 7.80; against A*6802, 4.73.

Take RMLQQLLFV [Peptide 1525.16]: the negative-log IC50 (pIC50) on HLA-A*0201 (HLA-A2.1) is 7.68; against A*0202, 7.68; at A*0203, 8.17; on A*0206, 7.85; at A*6802 it was less than 4.70.

RTLQLLLFV [Peptide 1525.25]: the pIC50 against HLA-A*0201 (HLA-A2.1) was 8.33; against A*0202, 6.43; on A*0203 it was 6.33; at A*0206, 7.96; at A*6802, 5.49.

For RTLQQLLFI [Peptide 1525.11], the pIC50 is 6.82 against HLA-A*0201 (HLA-A2.1); less than 4.70 on A*0202; 5.78 at A*0203; 7.05 against A*0206; less than 4.70 at A*6802.

With RTLQQLLFV [Peptide 1525.15], the pIC50 was 6.92 on HLA-A*0201 (HLA-A2.1); 5.89 at A*0202; 6.72 against A*0203; 7.52 against A*0206; less than 4.70 against A*6802.

With RTLTLLSVV [Peptide 9013.0075], the pIC50 at HLA-A*0201 (HLA-A2.1) is 6.30; against A*0202, 5.22; against A*0203 it was 6.52; on A*0206, 7.06; against A*6802, less than 4.70.

Turning to RTTVKTITVSV [Peptide 9013.0318], the pIC50 was 5.80 against HLA-A*0201 (HLA-A2.1); 6.06 at A*0202; 6.34 against A*0203; 6.86 at A*0206; 8.85 against A*6802.

For RVLQQLLFV [Peptide 1545.05], the pIC50 on HLA-A*0201 (HLA-A2.1) was 8.00; against A*0202 it was 6.00; at A*0203 it was 7.54; against A*0206 it was 8.19; against A*6802, less than 4.70.

Regarding SLNRSDPVT [Peptide 9013.0099], the pIC50 against HLA-A*0201 (HLA-A2.1) is less than 4.70; on A*0202, 6.92; against A*0203, 5.60; against A*0206, less than 4.70; against A*6802, less than 4.70.

In the case of SLNRSDPVTL [Peptide 9013.0233], the pIC50 against HLA-A*0201 (HLA-A2.1) was 4.79; on A*0202, 7.23; on A*0203, 7.10; against A*0206, less than 4.70; against A*6802 it was less than 4.70.

Turning to SLQDSQFEL [Peptide 1578.35], the pIC50 is 6.85 against HLA-A*0201 (HLA-A2.1); 8.85 on A*0202; 6.78 against A*0203; 6.80 at A*0206; 5.05 against A*6802.

SLYTHLQCL [Peptide 1578.20]: the pIC50 on HLA-A*0201 (HLA-A2.1) was 6.65; at A*0202 it was 8.59; at A*0203, 7.96; against A*0206 it was 6.27; on A*6802 it was 5.07.

As for TAKLTIESV [Peptide 9013.0009], the pIC50 on HLA-A*0201 (HLA-A2.1) was less than 4.70; on A*0202 it was 6.32; against A*0203, 6.67; at A*0206, 4.97; at A*6802, 6.61.

For the sequence TILQQLLFI [Peptide 1525.26], the pIC50 was 7.02 against HLA-A*0201 (HLA-A2.1); 5.56 against A*0202; 6.44 on A*0203; 7.04 on A*0206; 5.15 at A*6802.

Regarding TLELFIPNITV [Peptide 9013.0299], the pIC50 against HLA-A*0201 (HLA-A2.1) was 6.79; on A*0202 it was 6.30; against A*0203 it was 4.80; on A*0206, 5.63; against A*6802 it was 5.98.

Turning to TLELFISNI [Peptide 9013.0082], the pIC50 on HLA-A*0201 (HLA-A2.1) was 5.61; against A*0202 it was 6.77; on A*0203, 5.77; on A*0206 it was 5.41; at A*6802, 6.02.
